Literature values as cited in US20180256534A1, “KETAMINE AND […] 450 INHIBITOR COMBINATIONS” (SEQUOIA PHARMACEUTICALS, INC., priority 2015, published 2018).

Tests used:
[1] = tested on: patients with major depressive disorders

CNC1(c2ccccc2Cl)CCCCC1=O (centres unmarked) [ketamine]
onset of rapid antidepressant effect [1]: two
serum concentration at which psychotomimetic symptoms appear: about 50 ng/ml
